Reference: patent US20100029674A1, “Methods of Using Phosphoantigen for the Treatment of Cancer” (INNATE PHARMA, S.A., priority 2007, published 2010)
Counter-ions that a name gives are not always drawn. Where a SMILES comes first, the peptide text is derived from it.

Key:
[1] = system: advanced/metastatic solid tumors; assay: Phase I clinical trial: progression free survival; type: in vivo, human
Procedure: (§1) PHOSPHOST™ (Bromohydrin pyrophosphate, BrHPP) was evaluated in an escalating dose clinical trial in patients with advanced/metastatic solid tumors. The therapeutic regimen and pharmaco-toxicology of BrHPP in combination with low dose of IL-2 have previously been characterized in non human primates. The patients received at least 3 injections of BrHPP 3 weeks apart, concomitant with low dose of IL-2 (1 million IU/m^2/day). Pharmacological response was monitored all along the treatment. Based on the results of the phase I trial, a multicenter phase II study on metastatic RCC patients has been scheduled. The clinical drug product was a 200 mg/vial of lyophilized Phosphostim (expressed in mg equivalent of BrHPP anionic form.). The formulation of Phosphostim was reconstituted immediately prior to use with 2 ml of water for injections to make a 100 mg/ml solution. The reconstituted product was diluted in a total volume of 100 ml of ringer lactate buffer infusion vehicle. Phosphostim was administered intravenously over 1 hour.
The clinical trial was therefore a phase I, single arm, open-label, national, multi-center, dose-escalation trial in sequential cohorts of patients with advanced/metastatic solid tumors.
Patients were sequentially allotted to cohorts of progressively higher dose levels of Phosphostim. […] The objective tumor response was assessed after 3 cycles (i.e., every 9 weeks).

Vγ9Vδ2 T cells = assay: Phase I escalating dose clinical trial: amplification of Vγ9Vδ2 T cells by flow cytometry in chemotherapy-treated patients; type: in vivo, human; conditions: after second administration (with IL-2)
Procedure: Blood samples (4 ml) were withdrawn into EDTA containing tubes. Tubes were shipped overnight at room temperature (RT) before flow cytometry analyses.
Peripheral lymphocytes were analyzed by flow cytometry on total blood, after triple staining with anti-Vdelta2FITC, anti-CD3PE and anti-CD25PC5 antibodies (Vdelta2-FITC : IMMU389 clone, Immunotech-Beckman-Coulter, Marseilles, France; CD3-PE : UCHTI clone, Immunotech-Beckman-Coulter; CD25PC5 : M-A251 clone, Becton Dickinson, Le Pont de Claix, France).
Briefly, 100 μl patient blood was incubated 15 min at RT with 10 μl anti-Vdelta2-FITC, 10 μl anti-CD3-PE and 10 μl anti-CD25PC5 antibodies. Antibodies were washed with 3 ml 1× PBS, centrifuged for 4 min at 1300 rpm at RT and supernatant was discarded. Red cells were lysed with the OptiLyse B reagent (Immunotech-Beckman-Coulter, Marseilles, France) according to the manufacturer's instructions. At the final step, stained white blood cells were recovered by centrifugation and resuspended in 300 μl 1× PBS+0.2% PFA. Flow cytometry analysis on viable cells was performed on a FacsSCAN apparatus (Becton Dickinson) with the FacsDiva software.
as §1
All patient cohorts received repeated 3-week cycles of Phosphostim alone for the first cycle and Phosphostim in combination with IL-2 for the subsequent cycles. • first cycle: Phosphostim alone, • subsequent cycles: Phosphostim in combination with IL-2
Patients were sequentially allotted to cohorts of progressively higher dose levels of Phosphostim. […] The objective tumor response was assessed after 3 cycles (i.e., every 9 weeks). […]
Drug plasma levels were measured during the first and the second cycles in all patients. […] Biological effect was monitored throughout the trial and studied on PBMC and plasma. […]

γ9δ2 T cells = assay: Dose range activation of γδ T cells following iv injection of BrHPP (GLP pharmacology studies); type: in vivo, non-human primates
γδ T cells [2] = assay: In vitro BrHPP sensitivity test: 8 day culture of peripheral lymphocytes from CML patients undergoing Gleevec therapy, flow cytometry; type: cell-based, human
Procedure: The study intends to test the sensitivity of γ962 T cells from oncology patients to BrHPP. It aims at identifying cancers and or situations in which a BrHPP treatment would be relevant and those for which it would be less or not beneficial. In brief, a small sample of blood is sufficient to prepare PBMCs and culture in the presence of BrHPP. A result of the level of in vitro amplification of gamma-delta cells by BrHPP can be obtained in about 8 days.
Upon reception of blood, 20 ml blood samples were treated by Ficoll gradient to isolate peripheral lymphocytes, which were then frozen. The lymphocytes were cultured in a 96-well plate (1 million cells/ml) for 8 days in the presence of BrHPP. The percentage of γ962 T cells were then determined by a phenotypic assay (flow cytometry).
In such small scale culture assay, a patient is considered to be responsive to an agonist following 8 days of in vitro stimulation according to two criteria: the percentage of γ962 T cells in culture as well as the rate of amplification of these cells. The amplification rate corresponds to the ratio of number of total γ962 T cells at the end of culture to the total γ962 T cells at the start of culture. The qualitative evaluation of these two criteria was divided into four levels of response, according to the Table 2.
A patient is considered sensitive to BrHPP if the sum of the values of the two criteria is ++ or +++. A classification of 0 or + is considered non-sensitive.

γδ T cells [3] = assay: BrHPP-induced amplification of γδ T cells in monkeys treated with imatinib mesylate; type: in vivo; conditions: BrHPP iv plus IL-2 with oral daily imatinib mesylate 15 mg/kg versus BrHPP alone; days 6 and 20
human γ9δ2 T cells = assay: Combination of BrHPP and tyrosine kinase inhibitors on amplification of Vd2/Vg9 T cells in NOD SCID mice; type: in vivo; conditions: BrHPP 50 mg/kg i.p. day 0, IL-2 day 0 to 4, TKI from day 0 for 3 to 5 days; peritoneal lavage day 8
Procedure: Cell line: human PBMC whose γ9δ2 T cells percentage is higher than 0.5% and which has been previously tested for the “sensitivity test”. They were thawed one hour before injection and maintained for one hour in complete medium (RPMI 1640 supplemented with 2 mM L-glutamine, 1 mM Sodium Pyruvate (all from Gibco-BRL, Life Science, Invitrogen) and 10% heat inactivated Fetal Calf Serum (Fetal clone)) in incubator at 37° C.
• FITC anti human V82,Immunotech, ref 1464 • PerCpCy5.5 anti human CD3, Pharmingen, ref 552552 • APC anti human Vγ9 • APC Cy7 anti human CD45, Pharmingen, ref 348815 • PE anti human CD56, Pharmingen, ref 556647
Mice used included (a) NOD SCID female mice aged 8-10 weeks from Charles River Laboratories. Mice were fed and housed under sterilized conditions in Innate-Pharma's animal facility, and (b)NOD SCID female mice aged 10-12 weeks bred at Innate Pharma.
Each group contained 5 mice. Following transfer of human PBMC cells described above, the 4 groups received BrHPP (50 mg/kg, i.p.) on day 0 and IL-2 (2 M/m^2, s.c.) every day from day 0 to day 4. […] On day 8 mice were sacrificed, cells were collected by peritoneal lavage, and γ9δ2 T cell proliferation was assessed by flow cytometry.

[4] = system: previously treated metastatic breast cancer; conditions: in vivo; cited from earlier work
[5] = system: advanced drug refractory ovarian cancer; conditions: in vivo; cited from earlier work
various lung cancers = conditions: in vivo; cited from earlier work
[6] = system: histone deacetylase (HDAC); conditions: cited from earlier work
[7] = phosphostim plus IL-2, iv injection

With “3-(bromomethyl)-3-butanol-1-yl-diphosphate [BrHPP]” the “PFS (progression free survival)” value ([1]; Patient 3 (0018), metastatic renal cell carcinoma, two cycles, 1800 mg/m^2) was 72 weeks, the PFS ([1]; Patient 4 (0017), colon cancer, three cycles, 1200 mg/m^2) was 39 weeks and the “amplification rate of Vγ9Vδ2 T cells” value (Vγ9Vδ2 T cells; Patient 1 (0035), colon cancer, 1500 mg/m2, within six months of Cetuximab/Irinotecan therapy) was 11 ×. For the same compound, the “amplification rate of Vγ9Vδ2 T cells” value (Vγ9Vδ2 T cells; Patient 2 (0039), colon cancer, 1500, Erbitux/Irinotecan ending within three months before) was 6.4 ×, the “amplification rate of Vγ9Vδ2 T cells” value (Vγ9Vδ2 T cells; Patient 3 (0018), metastatic renal cell carcinoma, 1800 mg/m^2, prior BAY 43-9006 and Avastin ending within a month before) was 6.2 × and the “amplification rate of Vγ9Vδ2 T cells” value (Vγ9Vδ2 T cells; Patient 4 (0017), colon cancer, 1200 mg/m^2, Oxaliplatin/5FU/Elvorine/Vinflumine ending within three months before) was 4.3 ×. For the same compound, the “γ9δ2 T cell levels return to basal level” value (γ9δ2 T cells; in most animals (except some treated with a high dose)) was 14 days, the EC50 in vivo (γ9δ2 T cells; [7]) was “about 60 mg/kg” and the “dose at which a plateau seems to be reached” value (γ9δ2 T cells; [7]) was 97 mg/kg. For the same compound, the “dose from which the effect is detected” value (γ9δ2 T cells; [7]) was no less than 2.4 mg/kg, the non-sensitive patients (γδ T cells [2]; of 19 CML patients undergoing imitanib mesylate treatment) was “One” and the “patients with values of either ++ or +++ (responsive to BrHPP induced amplification)” value (γδ T cells [2]; of 19 CML patients undergoing imitanib mesylate treatment, sum of the two criteria of Table 2) was 18 patients.

With `Cc1ccc(NC(=O)c2ccc(CN3CCN(C)CC3)cc2)cc1Nc1nccc(-c2cccnc2)n1` [Gleevec, imatinib mesylate, reference compound] the “effect on γδ T cell proliferation (percentage of γ9δ2 T cells among total cells)” value (γδ T cells [3]) was “does not significantly impair” and the “sensitivity of T cells from Gleevec-treated CML patients to γ9δ2 T cell agonists such as BrHPP” value (γδ T cells [2]; 8 days culture with BrHPP) was “remain sensitive”.

For `CNC(=O)c1cc(Oc2ccc(NC(=O)Nc3ccc(Cl)c(C(F)(F)F)c3)cc2)ccn1` [Sorafenib, sorafenib], the “effect on γδ T cell proliferation (percentage of γ9δ2 T cells among total cells)” value (human γ9δ2 T cells) was “does not impair”.

For `CC(=O)O[C@H]1C(=O)[C@@]2(C)[C@H]([C@H](OC(=O)c3ccccc3)[C@]3(O)C[C@H](OC(=O)[C@H](O)[C@@H](NC(=O)c4ccccc4)c4ccccc4)C(C)=C1C3(C)C)[C@]1(OC(C)=O)CO[C@@H]1C[C@@H]2O` [taxol, Paclitaxel], the response rate [4] is given as 27-62%, the response rate [5] is given as 19-36% and the response rate (various lung cancers) is given as 21-37%.

For `O=C(CCCCC[C@@H]1NC(=O)[C@H]2CCCCN2C(=O)[C@H](Cc2ccccc2)NC(=O)[C@H](Cc2ccccc2)NC1=O)C1CO1` (some centres unmarked) [trapoxin (TPX), trapoxin] (HELM PEPTIDE1{F.F.[O=C([C@H]1CCCCN1[*:1])[*:2]].[O=C(CCCCC[C@H](N[*:1])C(=O)[*:2])C1CO1]}$PEPTIDE1,PEPTIDE1,1:R1-4:R2$$$V2.0), the “concentration at which HDAC is inhibited” value [6] is given as “nanomolar concentrations”.

For `CC(/C=C/C(=O)NO)=C\[C@@H](C)C(=O)c1ccc(N(C)C)cc1` [trichostatin A], the “concentration at which HDAC is inhibited” value [6] is given as “nanomolar concentrations”.
